The results in this text go back to patent publication EP4583874B1, “MULTITARGET NUCLEAR RECEPTOR LIGANDS BASED ON 2-(4-(QUINOLIN-2-YLOXY)PHENOXY)PROPANOIC ACID AND 2-(4-(QUINOXALIN-2-YLOXY)PHENOXY)PROPANOIC ACID FOR THE TREATMENT OF METABOLIC AND LIVER DISEASES” (CHARLES UNIVERSITY, FACULTY OF PHARMACY IN HRADEC KRALOVE, priority 2022, dated 2024).

One data set concerns the target T1, human PPARα (Homo sapiens, UniProt Q07869).
T1 construct: DNA constructs encoding human LBD domains of human PPARα, PPARγ, of LXRα (pGAL4-PPARα, pGAL4-PPARγ, pGAL4-LXRα); expressed in transfected cells; host or cells: HepG2
T1 sequence (Q07869 239-466 limits assumed): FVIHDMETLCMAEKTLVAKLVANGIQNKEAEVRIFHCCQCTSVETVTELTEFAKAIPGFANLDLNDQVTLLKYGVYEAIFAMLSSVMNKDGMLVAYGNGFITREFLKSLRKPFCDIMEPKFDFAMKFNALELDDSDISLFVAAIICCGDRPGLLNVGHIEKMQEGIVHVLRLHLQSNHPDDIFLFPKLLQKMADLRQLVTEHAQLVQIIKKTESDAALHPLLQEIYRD
The data set is described as follows: PPARα responsive luciferase reporter gene assay (pGAL4-PPARα / pGL5-UAS 9x) in HepG2 cells. The format is cell-based. Particulars: relative activation to fenofibrate 10 µM (100%), HepG2, 24 h, negative value indicates inverse agonism. The text has this:
Bezafibrate, GW7647 and WY14643 are known PPARα ligands. […] GW3965 is known high-affinity LXRα ligand. […]
(§1) In HepG2 cells, luciferase gene reporter assays have been performed with the transiently transfected reporter gene luciferase construct with the UAS yeast binding site interacting with GAL4 protein (pGL5-UAS 9x, Promega). DNA constructs encoding human LBD domains of human PPARα, PPARγ, of LXRα (pGAL4-PPARα, pGAL4-PPARγ, pGAL4-LXRα) have been cotransfected with the reporter construct. For FXR, FXRE-luc construct with FXR response elements upstream of Firefly luciferase has been used together with an expression construct for human FXR for HepG2 cells transfection. HepG2 cells were then treated with compounds of the invention for 24 h.
Background: Reporter assays use an easily measured gene product as a stand-in for the process of interest.

The next data set has as its target T2, human PPARγ (Homo sapiens, UniProt P37231).
T2 construct: DNA constructs encoding human LBD domains of human PPARα, PPARγ, of LXRα (pGAL4-PPARα, pGAL4-PPARγ, pGAL4-LXRα); expressed in transfected cells; host or cells: HepG2
T2 sequence (P37231 238-503 limits assumed): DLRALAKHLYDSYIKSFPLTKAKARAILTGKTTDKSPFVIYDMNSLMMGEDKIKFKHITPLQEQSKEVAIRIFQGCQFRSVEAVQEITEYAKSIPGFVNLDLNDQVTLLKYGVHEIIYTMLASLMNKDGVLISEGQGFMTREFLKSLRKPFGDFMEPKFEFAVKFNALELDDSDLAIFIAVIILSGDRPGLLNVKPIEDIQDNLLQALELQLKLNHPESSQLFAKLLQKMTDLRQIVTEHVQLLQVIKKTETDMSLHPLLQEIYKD
The experiment in a line: PPARγ luciferase reporter gene assay (pGAL4-PPARγ / pGL5-UAS 9x) in HepG2 cells. Particulars: HepG2, 24 h. The format is cell-based.

For the next data set, the target named is T3, human FXR (Homo sapiens, UniProt Q96RI1).
T3 construct: expressed in transfected cells; host or cells: HepG2
T3 sequence (Q96RI1 1-486): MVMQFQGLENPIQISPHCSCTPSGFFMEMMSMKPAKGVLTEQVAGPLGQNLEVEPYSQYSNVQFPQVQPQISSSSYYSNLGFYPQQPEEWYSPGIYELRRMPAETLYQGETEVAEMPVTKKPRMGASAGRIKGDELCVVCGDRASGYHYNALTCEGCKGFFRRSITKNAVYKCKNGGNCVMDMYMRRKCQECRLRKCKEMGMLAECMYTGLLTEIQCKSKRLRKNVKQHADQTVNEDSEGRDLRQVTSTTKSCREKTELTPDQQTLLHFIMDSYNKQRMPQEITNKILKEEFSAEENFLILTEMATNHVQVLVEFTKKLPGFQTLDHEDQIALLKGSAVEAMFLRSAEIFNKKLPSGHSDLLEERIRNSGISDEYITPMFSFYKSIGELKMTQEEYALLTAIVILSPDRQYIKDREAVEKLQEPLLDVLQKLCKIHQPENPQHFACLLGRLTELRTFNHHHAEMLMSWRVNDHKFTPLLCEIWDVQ
The data set is described as follows: FXR responsive luciferase reporter gene assay (FXRE-luc + human FXR expression construct) in HepG2 cells. It is filed as cell-based. Particulars: HepG2, 24 h.
Excerpt: as §1

A further data set concerns the target T4, TGR5 (Homo sapiens, UniProt Q8TDU6).
T4 sequence (Q8TDU6 1-330): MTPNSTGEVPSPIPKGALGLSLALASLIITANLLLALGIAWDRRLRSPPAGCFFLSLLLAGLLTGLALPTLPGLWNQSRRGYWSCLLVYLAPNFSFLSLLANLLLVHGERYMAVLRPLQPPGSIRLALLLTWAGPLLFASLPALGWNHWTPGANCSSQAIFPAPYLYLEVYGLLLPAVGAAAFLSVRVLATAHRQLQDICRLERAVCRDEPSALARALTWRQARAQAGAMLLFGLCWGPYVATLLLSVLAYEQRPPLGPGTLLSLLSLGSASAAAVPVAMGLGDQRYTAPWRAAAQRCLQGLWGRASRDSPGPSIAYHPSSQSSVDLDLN
The experiment in a line: TGR5 luciferase reporter assay. It is filed as cell-based. Particulars: relative activation to LCA 10 µM (100%), negative value indicates inverse agonism.

The next data set addresses T5, human LXRα (Homo sapiens, UniProt Q13133).
T5 construct: DNA constructs encoding human LBD domains of human PPARα, PPARγ, of LXRα (pGAL4-PPARα, pGAL4-PPARγ, pGAL4-LXRα); expressed in transfected cells; host or cells: HepG2
T5 sequence (Q13133 209-447 limits assumed): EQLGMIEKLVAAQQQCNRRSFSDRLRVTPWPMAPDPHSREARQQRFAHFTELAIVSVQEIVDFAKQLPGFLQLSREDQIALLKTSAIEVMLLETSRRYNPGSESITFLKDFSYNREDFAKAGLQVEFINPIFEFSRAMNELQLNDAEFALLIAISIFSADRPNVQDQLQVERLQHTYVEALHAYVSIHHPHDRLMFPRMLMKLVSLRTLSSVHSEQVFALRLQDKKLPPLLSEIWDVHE
The data set is described as follows: LXRα luciferase reporter gene assay, inhibition of activation by GW3965 (pGAL4-LXRα / pGL5-UAS 9x) in HepG2 cells. The format is cell-based. Particulars: HepG2, 24 h; read-out: LXRα antagonism. As to the method: Bezafibrate, GW7647 and WY14643 are known PPARα ligands. […] GW3965 is known high-affinity LXRα ligand.
Inverse agonistic/antagonistic activities of tested compounds to LXRα receptor activated by the LXRα agonist GW3965(10 µM). […] Negative value indicates inverse agonism.
as §1

Another data set deals with C57BL/6J mice. The data set is described as follows: Pilot study in mice, liver mRNA expression by RT-qPCR. Particulars: 3x 30 mg/kg p.o. gavage, liver 24 h after last application, vs vehicle. It is filed as in vivo. As to the method:
Compounds 35 and 37 have been applied three times after 24 h (3x 30 mg/kg) via p.o. gavage to wild-type C57BL/6J mice. After 24 h from the last application, mice were sacrificed, and live samples collected on dry ice for total RNA isolation. RT-qPCR experiments have been performed with TaqMan probes and expression has been quantified using a reference gene (beta-actin and Gapdh) and delta-delta method. Data represents fold up or downregulation in mRNA expression for tested genes related to the expression in vehicle-treated control animals. * - statistically significant (p<0.05) up- or down- regulation in animals treated with tested compounds (n=4).
In the pilot study, compounds of the invention 37 and 35 were applied by per os probe (gavage) to male mice of age 15 weeks (n=4 per group) three times (3 x 30 mg/kg b.w.) in 1%PEG300/methylcellulose solution (compounds of EXAMPLE 37or 35). Livers were sampled 24 hours after application into liquid nitrogen for total RNA insolation and for qRT-PCR analysis (Quantstudio 7 HT Fast Real-Time PCR System).
(§2) Expressions of NR target genes mRNAs in livers of mice or in 3D cultured (spheroids) primary human hepatocytes have been performed using TaqMan probes-based RT-qPCR after isolation of total RNA by Trizol® (ThermoFischer Scientific) reagent and reverse transcription synthesis of cDNA in Quant Studio cycler. Real-time qPCR TaqMan probes have been purchased prom ThermoFisher scientific (Cat. No. 4351372 and 433118). Delta-delta method and Gapdh or TATA-box binding protein (TBP) housekeeping genes were used for relative quantification. Data are expressed as fold up-/down-regulation compared to vehicle-treated samples/mice.

The test system of data set [1] is 3D primary human hepatocyte spheroids. The experiment in a line: Gene expression in 3D primary human hepatocyte spheroids by RT-qPCR. It is filed as cell-based. Particulars: 3D spheroids of primary human hepatocytes (JEL donor), 72 hours.
Excerpt: After the interval, spheroid have been subjected to RNA isolation and RT-qPCR was used to analyse mRNA expression using specific TaqMan probes. Expression has been quantified using a reference gene (TBP) and delta-delta method. Data represents fold up or downregulation in mRNA expression for tested genes (column) related to the expression in vehicle-treated controls (equal to 1, white color).
Human hepatocellular carcinoma HepG2 cell line was purchased from the European Collection of Cell Cultures (ECACC, Salisbury, UK). Primary human hepatocytes (donor) have been purchased from BioIV, Royston, UK.
as §2
(In general: Real-time PCR tracks product formation cycle by cycle.)

In general, Emax refers to the size of the effect at its maximum, as opposed to the concentration needed.

On to `C[C@@H](Oc1ccc(Oc2ccc3ccc(Br)cc3n2)cc1)C(=O)O` [compound 39, (R)-2-(4-((7-Bromoquinolin-2-yl)oxy)phenoxy)propanoic acid], for which the Emax at 10 µM on human PPARα is 87%; at human PPARγ it was 3%; at human FXR, 4%; on TGR5, 6%. The inhibition at 10 µM at human LXRα is 43%.

At human PPARα, `C[C@@H](Oc1ccc(Oc2ccc3ccc(Cl)cc3n2)cc1)C(=O)O` [compound 35, (R)-2-(4-((7-Chloroquinolin-2-yl)oxy)phenoxy)propanoic acid] showed an Emax at 10 µM of 117%. At human PPARγ, this compound yielded an Emax at 10 µM of 4%. Moreover, the Emax at 10 µM on human FXR was 4%. This compound registered an Emax at 10 µM at TGR5 of 5%. In addition, on human LXRα, the inhibition at 10 µM is 63%. Also, in the data set on C57BL/6J mice, the “Cyp7a1 expression in the mouse liver” value is “down-regulates”, the “Fasn gene expression in the mouse liver” value was “down-regulate”, the “Pck1 gene expression in the mouse liver” value is “down-regulate” and the “cholesterol efflux transporters Abcg5/8 expression in the mouse liver” value was “down-regulates”. Moreover, the “key protein involved in fatty acid (beta) oxidation, mRNA expression in the mouse liver” value in the data set with C57BL/6J mice is listed as “up-regulate”. Moreover, the “effect on some critical genes involved in fatty acid oxidation in comparison with fenofibrate” value in data set [1] was “augmented effect”. The “genes involved in fatty acid catabolism” value in data set [1] (combined effect of obeticholic acid and TFCA) is given as “suitable upregulation”.

Regarding `C[C@@H](Oc1ccc(Oc2ccc3c(Br)cccc3n2)cc1)C(=O)O` [compound 40, (R)-2-(4-((5-Bromoquinolin-2-yl)oxy)phenoxy)propanoic acid], the Emax at 10 µM came to 0% at human PPARα, 1% at human PPARγ, 89% on human FXR and 16% at TGR5. The inhibition at 10 µM on human LXRα is 48%.

For `C[C@@H](Oc1ccc(Oc2ccc3c(Cl)cc(Cl)cc3n2)cc1)C(=O)O` [compound 38, (R)-2-(4-((5,7-Dichloroquinolin-2-yl)oxy)phenoxy)propanoic acid], the Emax at 10 µM came to 0% on human PPARα, 1% on human PPARγ, 14% at human FXR and 2% at TGR5. Further, the inhibition at 10 µM on human LXRα came out at 41%.
